Data set [1] in a line: Toxic effect after oral administration (6400 mg/kg) was determined in mice; No effect. The format is toxicity, organism-based. As to conditions: mouse, in vivo; call rule not given here.
For data set [2], the system named is Escherichia coli. Put plainly: Antibacterial activity against Escherichia coli at a concentration of 80 ug/mL. It is filed as functional.
The subject of data set [3] is Bacillus subtilis. Put plainly: Antibacterial activity against Bacillus subtilis at a concentration of 40 ug/mL. It is filed as functional.
In data set [4] the test system is Escherichia coli. Put plainly: Antibacterial activity against Escherichia coli at a concentration of 20 ug/mL. It is filed as functional.
In data set [5] the test system is Bacillus subtilis. As to the kind of experiment: Antibacterial activity against Bacillus subtilis at a concentration of 160 ug/mL. The format is functional.
Data set [6] concerns Escherichia coli. As to the kind of experiment: Antibacterial activity against Escherichia coli at a concentration of 40 ug/mL. It is filed as functional.
The subject of data set [7] is Bacillus subtilis. As to the kind of experiment: Antibacterial activity against Bacillus subtilis at a concentration of 120 ug/mL. The format is functional.
Data set [8] deals with Bacillus subtilis. As to the kind of experiment: Antibacterial activity against Bacillus subtilis at a concentration of 80 ug/mL. It is filed as functional.
The subject of data set [9] is Escherichia coli. Put plainly: Antibacterial activity against Escherichia coli at a concentration of 10 ug/mL. It is filed as functional.
The nature of data set [10]: Lethal dose after intraperitoneal administration in mice. It is filed as toxicity. Conditions: mouse, in vivo, ip.
Data set [11] deals with Klebsiella pneumoniae. Put plainly: Antibacterial activity against Klebsiella pneumoniae at a concentration of 80 ug/mL. The format is functional.
Data set [12] relates to Klebsiella pneumoniae. As to the kind of experiment: Antibacterial activity against Klebsiella pneumoniae at a concentration of 120 ug/mL. The format is functional.
Data set [13] relates to Klebsiella pneumoniae. As to the kind of experiment: Antibacterial activity against Klebsiella pneumoniae at a concentration of 40 ug/mL. It is filed as functional.
Data set [14] has as its system Klebsiella pneumoniae. As to the kind of experiment: Antibacterial activity against Klebsiella pneumoniae at a concentration of 160 ug/mL. The format is functional.

Turning to `Cc1cc(C)nc(NS(=O)(=O)c2ccc(NCNC(=O)c3ccc(NC(=O)c4cccnc4)cc3)cc2)n1`, the Toxic effect entry in data set [1] is recorded as “Not Active”. For the same molecule, the Zone of inhibition is 14.1 mm in [2]; 6 mm in data set [3]; 13.9 mm in data set [4]; 17.6 mm in [5]; 13.7 mm in data set [6]; 13.6 mm in [7]. The Zone of inhibition in [8] was determined as 11.2 mm; in data set [9], 11.4 mm. In addition, the Lethal dose in data set [10] was determined as 1000 mg/kg.

Regarding `Cc1cc(NS(=O)(=O)c2ccc(NCNC(=O)c3ccc(NC(=O)c4cccnc4)cc3)cc2)no1`, the Toxic effect entry in data set [1] was “Not Active”. Besides, the Zone of inhibition amounted to 13.4 mm in data set [2]; 14.1 mm in data set [3]; 11.5 mm in [4]; 23.5 mm in data set [5]; 14.7 mm in data set [11]; 11.8 mm in data set [6]. For the same molecule, the Zone of inhibition in [7] came out at 20.7 mm; in data set [8], 18.6 mm; in data set [12], 14.4 mm; in [9] it was 11.3 mm; in [13] it was 12.5 mm; in [14] it was 13.7 mm. The same molecule displayed a Lethal dose in data set [10] of 1000 mg/kg.

In the case of `O=C(NCNc1ccc(S(=O)(=O)Nc2ncccn2)cc1)c1ccc(NC(=O)c2cccnc2)cc1`, the Toxic effect result in [1] is “Not Active”. The Zone of inhibition in data set [2] was 18.7 mm; in data set [3], 15.4 mm; in [4] it was 10.6 mm; in data set [5] it was 25.3 mm; in data set [11], 18.3 mm; in data set [6], 13.7 mm. The Zone of inhibition in data set [7] worked out at 22.9 mm; in data set [8] it was 20.4 mm; in data set [12], 19.2 mm; in data set [9], 10.4 mm; in data set [13] it was 18.9 mm; in data set [14] it was 20.9 mm. In data set [10], this molecule returned a Lethal dose of 1000 mg/kg.

In the case of `N=C(N)NS(=O)(=O)c1ccc(NCNC(=O)c2ccc(NC(=O)c3cccnc3)cc2)cc1`, the Toxic effect entry in data set [1] is “Not Active”. For the same molecule, the Zone of inhibition is 11.7 mm in data set [2], 11.4 mm in data set [4], 11 mm in [6] and 10.9 mm in data set [9]. The same molecule had a Lethal dose in [10] of 1000 mg/kg.

For the molecule `Cc1nnc(NS(=O)(=O)c2ccc(NCNC(=O)c3ccc(NC(=O)c4cccnc4)cc3)cc2)s1`, in data set [1], the Toxic effect entry is listed as “Not Active”. The Zone of inhibition in data set [2] was found to be 15 mm; in [4] it was 14.9 mm; in [6] it was 14.4 mm; in [9] it was 12.4 mm. Besides, the Lethal dose in data set [10] amounted to 1000 mg/kg.

With `NS(=O)(=O)c1ccc(NCNC(=O)c2ccc(NC(=O)c3cccnc3)cc2)cc1`, the Zone of inhibition in [2] is 13.2 mm; in data set [4], 12.7 mm; in data set [11] it was 12 mm; in data set [6], 13.2 mm; in data set [12], 13.7 mm; in data set [9], 13.1 mm. In addition, the Zone of inhibition was 11.1 mm in [13] and 21.4 mm in data set [14].

Turning to `Nc1ccc(S(=O)(=O)Nc2ncccn2)cc1` [SULFADIAZINE], the Zone of inhibition in data set [2] came to 25.5 mm; in data set [3], 20.8 mm; in [4] it was 17.2 mm; in data set [5], 26.9 mm; in data set [11], 29.2 mm; in data set [6] it was 22.2 mm. Further, the Zone of inhibition in data set [7] is 26.3 mm; in data set [8], 27.2 mm; in data set [12] it was 29.5 mm; in data set [9] it was 9.7 mm; in data set [13], 27 mm; in data set [14] it was 25.6 mm.

In the case of `Cc1cc(C)nc(NS(=O)(=O)c2ccc(N)cc2)n1` [SULFAMETHAZINE], the Zone of inhibition stood at 18.5 mm in data set [2]; 15.4 mm in data set [3]; 16.9 mm in data set [4]; 22 mm in data set [5]; 18.8 mm in [6]; 21.7 mm in data set [7]. In addition, the Zone of inhibition in data set [8] was 19.9 mm; in data set [9], 15.1 mm.

Regarding `Cc1nnc(NS(=O)(=O)c2ccc(N)cc2)s1` [SULFAMETHIZOLE], the Zone of inhibition turned out to be 25.5 mm in data set [2], 17.4 mm in data set [4], 22.2 mm in data set [6] and 16.2 mm in data set [9].

Consider `Cc1cc(NS(=O)(=O)c2ccc(N)cc2)no1` [SULFAMETHOXAZOLE], for which the Zone of inhibition worked out at 23.6 mm in data set [2]; 22.8 mm in data set [3]; 22.9 mm in data set [4]; 27.9 mm in [5]; 22.4 mm in data set [11]; 23.2 mm in data set [6]. Also, the Zone of inhibition in [7] was 27.4 mm; in [8], 25.4 mm; in data set [12], 26.4 mm; in data set [9] it was 19.6 mm; in data set [13] it was 11.6 mm; in data set [14] it was 6 mm.

For the molecule `Nc1ccc(S(N)(=O)=O)cc1` [SULFANILAMIDE], the Zone of inhibition was found to be 25.4 mm in [2], 22.3 mm in data set [4], 22.8 mm in [6] and 20.4 mm in data set [9].
